In the assay the target is T1, heparanase (Homo sapiens, UniProt Q9Y251).
T1 sequence (Q9Y251 158-543 limits assumed): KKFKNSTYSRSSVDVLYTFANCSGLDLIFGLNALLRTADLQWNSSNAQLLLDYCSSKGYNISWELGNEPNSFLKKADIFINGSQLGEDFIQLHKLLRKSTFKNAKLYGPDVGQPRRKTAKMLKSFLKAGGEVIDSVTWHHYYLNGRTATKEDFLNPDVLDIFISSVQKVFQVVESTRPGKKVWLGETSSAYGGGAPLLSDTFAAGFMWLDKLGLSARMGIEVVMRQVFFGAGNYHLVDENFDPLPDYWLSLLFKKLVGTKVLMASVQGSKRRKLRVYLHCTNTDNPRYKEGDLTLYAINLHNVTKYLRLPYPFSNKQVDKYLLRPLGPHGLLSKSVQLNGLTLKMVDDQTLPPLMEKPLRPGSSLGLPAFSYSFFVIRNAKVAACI
T1 sequence (Q9Y251 36-109 limits assumed): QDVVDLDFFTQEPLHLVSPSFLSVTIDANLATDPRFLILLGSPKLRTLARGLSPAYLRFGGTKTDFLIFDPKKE
The assay can be described thus: colorimetric WST-1 assay of cleavage by heparanase. The following applies: WST-1 colorimetric assay, over 21 h. The assay is classed as biochemical. (In general: Tetrazolium assays rely on reduction of a dye to a coloured formazan, in cell work by metabolically active cells.)

SMILES strings stand for the structures.

With `CO[C@H]1O[C@H](COS(=O)(=O)O)[C@@H](O[C@@H]2O[C@@H](C(=O)O)[C@@H](O[C@H]3O[C@H](COS(=O)(=O)O)[C@@H](O[C@@H]4O[C@H](C(=O)O)[C@@H](O[C@H]5O[C@H](COS(=O)(=O)O)[C@@H](O)[C@H](O)[C@H]5NS(=O)(=O)O)[C@H](O)[C@H]4O)[C@H](OS(=O)(=O)O)[C@H]3NS(=O)(=O)O)[C@H](O)[C@H]2OS(=O)(=O)O)[C@H](O)[C@H]1NS(=O)(=O)O` [Fondaparinux], the hydrolysis by heparanase result is given as “readily cleaved by heparanase”.
